Results on 10 compounds are retold here after US20240208992A1, “MACROCYCLES AS CFTR MODULATORS” (Idorsia Pharmaceuticals Ltd, priority 2021, published 2024).

Each structure is given as a SMILES string.

A word on the EC50: it is the concentration that produces a half-maximal response. As a reminder, the Emax is the size of the effect at its maximum, as opposed to the concentration needed.

The target in the experiment is human F508del-CFTR (Homo sapiens, UniProt P13569, DEL508-508). Nature of the experiment: F508del-CFTR cell surface expression (corrector activity), DiscoveRx ß-galactosidase complementation chemiluminescence assay in recombinant U2OS cell line.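 For all read-outs here: U2OS cells co-expressing ProLink-tagged F508del-CFTR and a membrane-anchored enzyme acceptor, where more surface CFTR restores β-galactosidase activity measured by chemiluminescence.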 The note with it: for EC50: EC50, F508del-CFTR cell surface expression, U2OS cells, 16h compound incubation, geomean values; for Emax: U2OS, in relation to Emax of corrector lumacaftor (=100%), arithmetic mean values.
human F508del-CFTR, sequence (P13569 with tags, fused parts or gaps DEL508-508): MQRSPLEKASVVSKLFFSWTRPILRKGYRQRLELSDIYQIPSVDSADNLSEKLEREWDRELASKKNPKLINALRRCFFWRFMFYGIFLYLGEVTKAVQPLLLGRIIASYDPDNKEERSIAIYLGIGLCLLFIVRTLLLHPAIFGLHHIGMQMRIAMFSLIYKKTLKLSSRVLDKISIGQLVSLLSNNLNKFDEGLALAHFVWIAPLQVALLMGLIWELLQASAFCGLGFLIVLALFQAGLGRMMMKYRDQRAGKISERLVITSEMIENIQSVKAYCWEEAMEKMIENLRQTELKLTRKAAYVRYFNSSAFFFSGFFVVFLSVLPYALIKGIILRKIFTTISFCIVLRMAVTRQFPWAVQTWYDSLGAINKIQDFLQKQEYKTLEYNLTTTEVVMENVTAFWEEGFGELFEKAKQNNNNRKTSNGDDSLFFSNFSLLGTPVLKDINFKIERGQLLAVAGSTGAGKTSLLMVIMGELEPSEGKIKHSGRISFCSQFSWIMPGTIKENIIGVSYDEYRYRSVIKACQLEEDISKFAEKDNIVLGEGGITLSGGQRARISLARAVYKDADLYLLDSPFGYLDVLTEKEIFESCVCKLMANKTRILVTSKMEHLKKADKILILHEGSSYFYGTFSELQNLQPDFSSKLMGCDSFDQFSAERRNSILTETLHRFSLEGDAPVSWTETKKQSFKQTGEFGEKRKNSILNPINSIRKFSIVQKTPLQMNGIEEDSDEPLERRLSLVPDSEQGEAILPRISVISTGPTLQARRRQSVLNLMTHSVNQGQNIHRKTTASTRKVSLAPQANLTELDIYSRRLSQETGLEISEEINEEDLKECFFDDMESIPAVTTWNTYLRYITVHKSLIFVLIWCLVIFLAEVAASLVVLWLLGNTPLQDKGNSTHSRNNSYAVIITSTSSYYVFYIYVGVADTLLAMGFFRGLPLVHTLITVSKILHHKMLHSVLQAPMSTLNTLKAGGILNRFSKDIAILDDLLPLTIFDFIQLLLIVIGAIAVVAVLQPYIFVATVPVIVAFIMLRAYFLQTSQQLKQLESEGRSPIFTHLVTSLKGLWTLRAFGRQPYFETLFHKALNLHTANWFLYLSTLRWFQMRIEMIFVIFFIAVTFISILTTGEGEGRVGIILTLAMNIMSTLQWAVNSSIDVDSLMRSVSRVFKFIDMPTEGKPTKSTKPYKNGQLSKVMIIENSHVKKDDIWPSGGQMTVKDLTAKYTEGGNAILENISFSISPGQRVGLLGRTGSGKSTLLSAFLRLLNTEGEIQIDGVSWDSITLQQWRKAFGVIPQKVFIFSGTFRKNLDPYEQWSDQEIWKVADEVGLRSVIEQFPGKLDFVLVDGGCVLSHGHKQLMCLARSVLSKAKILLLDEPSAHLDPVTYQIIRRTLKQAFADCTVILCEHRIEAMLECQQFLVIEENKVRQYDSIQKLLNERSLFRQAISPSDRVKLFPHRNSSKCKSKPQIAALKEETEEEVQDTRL

For `COCCN1CCN2C(=O)[C@H](CC(C)C)N(C)C(=O)C[C@@H](C(=O)NCCc3nc4c(s3)CCC4)NC(=O)c3c(cnc4ccccc34)OC[C@@H](Cc3ccccc3)NC(=O)[C@H]2C1` [Example 415, (9S,13S,19aR,22R)-22-benzyl-N-(2-(5,6-dihydro-4H-cyclopenta[d]thiazol-2-yl)ethyl)-13-isobutyl-18-(2-methoxyethyl)-12-methyl-7,11,14,20-tetraoxo-7,8,9,10,11,12,13,14,17,18,19,19a,20,21,22,23-hexadecahydro-16H-pyrazino[2′,1′:6,7][1]oxa[4,7,10,14]tetraazacycloheptadecino[17,16-c]quinoline-9-carboxamide], the EC50 was determined as 840 nM and the Emax was 274%.
As for `COc1cccc(CCNC(=O)[C@@H]2CC(=O)N(C)[C@@H](CC(C)C)C(=O)N3CCN(CCO)C[C@@H]3C(=O)N[C@H](Cc3ccccc3)COc3ccc4ccccc4c3C(=O)N2)c1` [Example 416, (4aR,7R,18S,22S)-7-benzyl-3-(2-hydroxyethyl)-22-isobutyl-N-(3-methoxyphenethyl)-21-methyl-5,16,20,23-tetraoxo-2,3,4,4a,5,6,7,8,16,17,18,19,20,21,22,23-hexadecahydro-1H-naphtho[1,2-p]pyrazino[2,1-f][1]oxa[4,7,10,14]tetraazacycloheptadecine-18-carboxamide], the EC50 turned out to be 526 nM and the maximal response (Emax) amounted to 345%.
In the same order, the values of `COc1cccc(CCNC(=O)[C@@H]2CC(=O)N(C)[C@@H](CC(C)C)C(=O)N3CCN(C4CC4)C[C@@H]3C(=O)N[C@H](Cc3ccccc3)COc3ccc4nc(C)oc4c3C(=O)N2)c1` [Example 417, (8S,12S,18aR,21R)-21-benzyl-17-cyclopropyl-12-isobutyl-N-(3-methoxyphenethyl)-4,11-dimethyl-6,10,13,19-tetraoxo-6,7,8,9,10,11,12,13,16,17,18,18a,19,20,21,22-hexadecahydro-15H-oxazolo[4′,5′:5,6]benzo[1,2-p]pyrazino[2,1-f][1]oxa[4,7,10,14]tetraazacycloheptadecine-8-carboxamide] are 437 nM and 343%.
In the same order, the values of `CCOc1cccc(CCNC(=O)[C@@H]2CC(=O)N(C)[C@@H](CC(C)C)C(=O)N3CCN(C4CC4)C[C@@H]3C(=O)N[C@H](Cc3ccccc3)COc3ccc4nc(C)oc4c3C(=O)N2)c1` [Example 418, (8S,12S,18aR,21R)-21-benzyl-17-cyclopropyl-N-(3-ethoxyphenethyl)-12-isobutyl-4,11-dimethyl-6,10,13,19-tetraoxo-6,7,8,9,10,11,12,13,16,17,18,18a,19,20,21,22-hexadecahydro-15H-oxazolo[4′,5′:5,6]benzo[1,2-p]pyrazino[2,1-f][1]oxa[4,7,10,14]tetraazacycloheptadecine-8-carboxamide] are 276 nM and 259%.
For `Cc1nc2ccc3c(c2o1)C(=O)N[C@H](C(=O)NCCc1cccc(OC(F)F)c1)CC(=O)N(C)[C@@H](CC(C)C)C(=O)N1CCN(C2CC2)C[C@@H]1C(=O)N[C@H](Cc1ccccc1)CO3` [Example 419, (8S,12S,18aR,21R)-21-benzyl-17-cyclopropyl-N-(3-(difluoromethoxy)phenethyl)-12-isobutyl-4,11-dimethyl-6,10,13,19-tetraoxo-6,7,8,9,10,11,12,13,16,17,18,18a,19,20,21,22-hexadecahydro-15H-oxazolo[4′,5′:5,6]benzo[1,2-p]pyrazino[2,1-f][1]oxa[4,7,10,14]tetraazacycloheptadecine-8-carboxamide] the same measures were 358 nM and 243%.
`Cc1nc2ccc3c(c2o1)C(=O)N[C@H](C(=O)NCCc1nc2c(s1)CCC2)CC(=O)N(C)[C@@H](CC(C)C)C(=O)N1CCN(C2CC2)C[C@@H]1C(=O)N[C@H](Cc1ccccc1)CO3` [Example 420, (8S,12S,18aR,21R)-21-benzyl-17-cyclopropyl-N-(2-(5,6-dihydro-4H-cyclopenta[d]thiazol-2-yl)ethyl)-12-isobutyl-4,11-dimethyl-6,10,13,19-tetraoxo-6,7,8,9,10,11,12,13,16,17,18,18a,19,20,21,22-hexadecahydro-15H-oxazolo[4′,5′:5,6]benzo[1,2-p]pyrazino[2,1-f][1]oxa[4,7,10,14]tetraazacycloheptadecine-8-carboxamide]: the 50% effective concentration (EC50) worked out at 437 nM and the maximal response (Emax) was determined as 231%.
In the case of `Cc1nc2ccc3c(c2o1)C(=O)N[C@H](C(=O)NCCc1ccc2c(c1)OCCO2)CC(=O)N(C)[C@@H](CC(C)C)C(=O)N1CCN(C2CC2)C[C@@H]1C(=O)N[C@H](Cc1ccccc1)CO3` [Example 421, (8S,12S,18aR,21R)-21-benzyl-17-cyclopropyl-N-(2-(2,3-dihydrobenzo[b][1,4]dioxin-6-yl)ethyl)-12-isobutyl-4,11-dimethyl-6,10,13,19-tetraoxo-6,7,8,9,10,11,12,13,16,17,18,18a,19,20,21,22-hexadecahydro-15H-oxazolo[4′,5′:5,6]benzo[1,2-p]pyrazino[2,1-f][1]oxa[4,7,10,14]tetraazacycloheptadecine-8-carboxamide], the EC50 amounted to 391 nM and the Emax was determined as 320%.
With `Cc1nc2ccc3c(c2o1)C(=O)N[C@H](C(=O)NCCc1cccc(C(C)(F)F)c1)CC(=O)N(C)[C@@H](CC(C)C)C(=O)N(CCC1CCCCC1)CC(=O)N[C@H](Cc1ccccc1)CO3` [Example 422, (8R,14S,18S)-8-benzyl-12-(2-cyclohexylethyl)-N-(3-(1,1-difluoroethyl)phenethyl)-14-isobutyl-2,15-dimethyl-10,13,16,20-tetraoxo-7,8,9,10,11,12,13,14,15,16,17,18,19,20-tetradecahydrooxazolo[4′,5′:5,6]benzo[1,2-p][1]oxa[4,7,10,14]tetraazacycloheptadecine-18-carboxamide], the half-maximal effective concentration (EC50) turned out to be 192 nM and the Emax stood at 193%.
In the same order, the values of `COc1cccc(CCNC(=O)[C@@H]2CC(=O)N(C)[C@@H](CC(C)C)C(=O)N3CCCC[C@@H]3C(=O)N[C@H](Cc3ccccc3)COc3ccc4c(cnn4C)c3C(=O)N2)c1` [Example 423, (8S,12S,18aR,21R)-21-benzyl-12-isobutyl-N-(3-methoxyphenethyl)-3,11-dimethyl-6,10,13,19-tetraoxo-6,7,8,9,10,11,12,13,16,17,18,18a,19,20,21,22-hexadecahydro-3H,15H-pyrido[2′,1′:6,7][1]oxa[4,7,10,14]tetraazacycloheptadecino[16,17-e]indazole-8-carboxamide] are 278 nM and 239%.
In the case of `COc1cccc(CCNC(=O)[C@@H]2CC(=O)N(C)[C@@H](CC(C)C)C(=O)N3CCOC[C@@H]3C(=O)N[C@H](Cc3ccccc3)COc3ccc4c(cnn4C)c3C(=O)N2)c1` [Example 424, (8S,12S,18aR,21R)-21-benzyl-12-isobutyl-N-(3-methoxyphenethyl)-3,11-dimethyl-6,10,13,19-tetraoxo-6,7,8,9,10,11,12,13,15,16,18,18a,19,20,21,22-hexadecahydro-3H-[1,4]oxazino[3′,4′:6,7][1]oxa[4,7,10,14]tetraazacycloheptadecino[16,17-e]indazole-8-carboxamide], the EC50 amounted to 831 nM and the Emax turned out to be 235%.
